Test results reported in patent publication US5859033A, “Anticonvulsant pyridinyl benzamide derivatives” (Bristol-Myers Squibb Company, priority 1997, dated 1999).

How the values were obtained:
[1] = system: tonic seizure (maximum electroshock) in female C57BI/6 mice; experiment: Maximum Electroshock (MES) procedure; type: in vivo, mouse (female C57BI/6); details: Mus musculus, ip, 0.5 h, i.p. 30 min before MES, abolition of hindlimb tonic extension, read-out: MES Results: median effective dose (ED50)
Protocol: (§1) The compounds of Formula I are anticonvulsant agents. Their anticonvulsant properties were determined by pharmacologic testing, utilizing two standard animal models of epilepsy: the pentylenetetrazole (PTZ)-induced seizure procedure and the maximal electroshock test (MES). General descriptions of such testing can be found in J. F. Reinhard and J. F. Reinhard, Jr., "Experimental Evaluation of Anticonvulsants," in Anticonvulsants, J. A. Vida, Ed., Academic Press, New York, N.Y., 1977.
The Maximum Electroshock (MES) Procedure
In the MES procedure a tonic seizure was produced in female C57BI/6 mice (17-26 g) by the delivery of a 50 milliamps current through corneal electrodes for 0.2 sec. Before testing, animals were allowed food and water ad libitum. Compounds were injected i.p. (vol=0.1 mL/20 g) 30 min. before the MES. Reference compounds (phenytoin, carbamazepine, phenobarbital, and valproic acid) were tested at the time of peak activity and at the dose range reported in the literature. Seven mice were used per group. In this test anticonvulsive activity was indicated by the abolition of the hindlimb tonic extension. The median effective dose (ED50) was obtained for each compound.

[2] = system: pentylenetetrazole (PTZ)-induced seizure in female C57BI/6 mice; experiment: Pentylenetetrazole (PTZ)-induced seizure procedure; type: in vivo, mouse (female C57BI/6); details: 50 mg/kg i.p., 30 min before 75 mg/kg i.p. PTZ; for PTZ Anticonvulsive Results: Surv (survival at one hour postPTZ): one hour post PTZ
Protocol: as §1
The Pentylenetetrazole (PZT)-Induced Seizure Procedure
In the PTZ procedure female C57BI/6 mice (17-26 g) were injected i.p. (vol=0.1 mL/20 g) with test compound or vehicle 30 min. before i.p. administration of 75 mg/kg pentylenetetrazol. Multiple doses of reference compounds (ethosuximide, trimethadione, and pentobarbital) were tested at the time of peak activity and at the dose range reported in the literature. Ten mice were used per group. After injection, mice were placed in individual observation cages and monitored for one hour. During the first 30 minutes following PTZ injection, seizure activity was recorded by measuring: the latency to the onset of pre-convulsive activity, the latency to the onset of the first clonic seizure longer than five seconds, the latency to the onset of the first intense-generalized clonic/tonic seizure, and the length of survival. During the second 30 min. period, only time of death was recorded. Those compounds that produced a significant delay in the onset of seizure activity or delayed (or abolished) mortality when compared to that produced by vehicle were classified as anticonvulsants. Significant difference between animals treated with vehicle or test compound were determined using the Student's t-test.

COc1cc(N)c(Cl)cc1C(=O)NCc1ccncc1 [Example 3, 4-Amino-5-chloro-2-methoxy-N-(4-pyridinylmethyl)benzamide]
ED50 [1]: < 10 mg/kg
PTZ Anticonvulsive Results: First (latency to first seizure) [2]: ++++ (++++ = > 400% of controls)
PTZ Anticonvulsive Results: IGS (onset of intense, generalized seizures) [2]: +++ (+++ = > 300% of controls)
PTZ Anticonvulsive Results: Pre (latency to first twitch) [2]: ++ (++ = > 200% of controls)
PTZ Anticonvulsive Results: Surv Time (duration of survival) [2]: ++++ (++++ = > 400% of controls)
PTZ Anticonvulsive Results: Surv (survival at one hour postPTZ) [2]: ++++ (++++ = > 400% of controls)

COc1cc(N)c(Cl)cc1C(=O)NCc1cccnc1 [Example 1, 4-Amino-5-chloro-2-methoxy-N-(3-pyridinylmethyl)benzamide]
ED50 [1]: < 75 mg/kg
PTZ Anticonvulsive Results: First (latency to first seizure) [2]: ++++ (++++ = > 400% of controls)
PTZ Anticonvulsive Results: IGS (onset of intense, generalized seizures) [2]: +++ (+++ = > 300% of controls)
PTZ Anticonvulsive Results: Pre (latency to first twitch) [2]: ++ (++ = > 200% of controls)
PTZ Anticonvulsive Results: Surv Time (duration of survival) [2]: ++++ (++++ = > 400% of controls)
PTZ Anticonvulsive Results: Surv (survival at one hour postPTZ) [2]: ++++ (++++ = > 400% of controls)

COc1cc(N)c(Cl)cc1C(=O)NCc1ccccn1 [Example 2, 4-Amino-5-chloro-2-methoxy-N-(2-pyridinylmethyl)benzamide]
PTZ Anticonvulsive Results: First (latency to first seizure) [2]: ++++ (++++ = > 400% of controls)
PTZ Anticonvulsive Results: Pre (latency to first twitch) [2]: ++ (++ = > 200% of controls)
PTZ Anticonvulsive Results: Surv Time (duration of survival) [2]: +++ (+++ = > 300% of controls)
PTZ Anticonvulsive Results: Surv (survival at one hour postPTZ) [2]: ++++ (++++ = > 400% of controls)
